Legend:
[1] = molecular target: T1, Muscarinic acetylcholine receptor M1 (Homo sapiens, UniProt P11229); assay type: functional, cell-based
T1 sequence (P11229 whole entry): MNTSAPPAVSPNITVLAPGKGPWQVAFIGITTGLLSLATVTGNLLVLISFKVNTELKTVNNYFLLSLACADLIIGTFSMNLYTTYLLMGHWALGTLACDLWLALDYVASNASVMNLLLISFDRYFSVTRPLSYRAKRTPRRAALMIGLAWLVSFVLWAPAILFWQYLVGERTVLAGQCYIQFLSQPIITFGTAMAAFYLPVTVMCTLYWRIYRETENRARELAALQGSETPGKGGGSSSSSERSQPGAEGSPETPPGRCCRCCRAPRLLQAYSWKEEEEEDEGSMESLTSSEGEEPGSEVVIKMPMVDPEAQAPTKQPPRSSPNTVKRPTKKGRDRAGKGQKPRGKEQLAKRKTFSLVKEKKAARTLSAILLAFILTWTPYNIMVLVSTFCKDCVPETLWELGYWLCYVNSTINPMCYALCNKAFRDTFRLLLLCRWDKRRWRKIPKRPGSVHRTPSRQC

[2] = molecular target: Gamma-aminobutyric acid receptor subunit alpha-1/alpha-2/beta-2/gamma-2 (Homo sapiens, UniProt P14867+P18507+P47869+P47870); assay type: protein-complex assay
Gamma-aminobutyric acid receptor subunit alpha-1/alpha-2/beta-2/gamma-2, sequence (P14867 whole entry): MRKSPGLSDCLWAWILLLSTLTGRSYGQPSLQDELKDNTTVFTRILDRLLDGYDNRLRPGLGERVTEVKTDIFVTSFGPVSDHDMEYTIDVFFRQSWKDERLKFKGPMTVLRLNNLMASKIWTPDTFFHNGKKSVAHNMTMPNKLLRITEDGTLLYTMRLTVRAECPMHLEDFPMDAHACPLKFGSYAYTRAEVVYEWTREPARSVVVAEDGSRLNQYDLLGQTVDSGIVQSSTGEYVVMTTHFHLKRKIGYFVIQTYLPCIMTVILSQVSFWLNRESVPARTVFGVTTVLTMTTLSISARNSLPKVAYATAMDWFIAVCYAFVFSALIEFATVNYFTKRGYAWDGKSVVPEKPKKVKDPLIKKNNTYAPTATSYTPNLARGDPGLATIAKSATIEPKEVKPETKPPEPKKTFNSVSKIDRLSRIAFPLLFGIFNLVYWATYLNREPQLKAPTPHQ
Gamma-aminobutyric acid receptor subunit alpha-1/alpha-2/beta-2/gamma-2, sequence (P47870 whole entry): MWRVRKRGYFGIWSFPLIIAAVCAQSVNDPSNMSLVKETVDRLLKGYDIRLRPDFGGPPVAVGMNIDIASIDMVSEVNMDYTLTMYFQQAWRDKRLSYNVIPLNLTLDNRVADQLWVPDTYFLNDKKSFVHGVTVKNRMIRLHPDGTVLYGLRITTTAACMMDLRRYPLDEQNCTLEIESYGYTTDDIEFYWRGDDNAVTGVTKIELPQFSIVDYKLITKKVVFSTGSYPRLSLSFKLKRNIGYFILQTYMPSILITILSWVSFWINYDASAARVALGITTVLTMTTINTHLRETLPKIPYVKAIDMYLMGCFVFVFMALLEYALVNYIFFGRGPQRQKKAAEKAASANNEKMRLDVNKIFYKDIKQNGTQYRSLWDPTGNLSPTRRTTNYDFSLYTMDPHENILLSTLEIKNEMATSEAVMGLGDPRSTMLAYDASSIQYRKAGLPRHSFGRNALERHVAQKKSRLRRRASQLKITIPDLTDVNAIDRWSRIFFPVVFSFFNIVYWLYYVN
Gamma-aminobutyric acid receptor subunit alpha-1/alpha-2/beta-2/gamma-2, sequence (P18507 whole entry): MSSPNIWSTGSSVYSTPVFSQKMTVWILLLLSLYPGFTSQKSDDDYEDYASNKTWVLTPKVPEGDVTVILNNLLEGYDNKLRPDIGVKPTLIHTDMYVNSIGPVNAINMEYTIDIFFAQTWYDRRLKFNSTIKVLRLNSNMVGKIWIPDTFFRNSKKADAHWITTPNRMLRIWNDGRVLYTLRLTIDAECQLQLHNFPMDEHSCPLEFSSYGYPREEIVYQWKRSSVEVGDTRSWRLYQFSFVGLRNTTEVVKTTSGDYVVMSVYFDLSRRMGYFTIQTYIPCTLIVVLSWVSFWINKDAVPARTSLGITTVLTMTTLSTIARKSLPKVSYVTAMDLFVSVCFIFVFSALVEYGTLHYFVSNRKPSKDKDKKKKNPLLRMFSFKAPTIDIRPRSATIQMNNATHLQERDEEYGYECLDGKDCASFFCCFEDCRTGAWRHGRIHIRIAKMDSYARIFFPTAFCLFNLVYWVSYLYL
Gamma-aminobutyric acid receptor subunit alpha-1/alpha-2/beta-2/gamma-2, sequence (P47869 whole entry): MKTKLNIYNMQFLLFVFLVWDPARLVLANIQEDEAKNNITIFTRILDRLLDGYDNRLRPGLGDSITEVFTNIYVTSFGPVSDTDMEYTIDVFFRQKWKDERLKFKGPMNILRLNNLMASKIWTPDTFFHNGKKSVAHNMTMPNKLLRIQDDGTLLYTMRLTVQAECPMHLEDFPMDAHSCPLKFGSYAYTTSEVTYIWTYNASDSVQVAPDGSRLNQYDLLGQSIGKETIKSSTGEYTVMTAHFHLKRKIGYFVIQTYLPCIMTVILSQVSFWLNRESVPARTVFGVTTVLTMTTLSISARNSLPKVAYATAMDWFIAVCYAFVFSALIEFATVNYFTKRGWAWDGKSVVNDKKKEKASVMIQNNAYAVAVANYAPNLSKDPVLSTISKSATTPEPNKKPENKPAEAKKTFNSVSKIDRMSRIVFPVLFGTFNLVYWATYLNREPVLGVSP

Adenosine receptor A3 = molecular target: T2, Adenosine receptor A3 (Homo sapiens, UniProt P0DMS8)
T2 sequence (P0DMS8 whole entry): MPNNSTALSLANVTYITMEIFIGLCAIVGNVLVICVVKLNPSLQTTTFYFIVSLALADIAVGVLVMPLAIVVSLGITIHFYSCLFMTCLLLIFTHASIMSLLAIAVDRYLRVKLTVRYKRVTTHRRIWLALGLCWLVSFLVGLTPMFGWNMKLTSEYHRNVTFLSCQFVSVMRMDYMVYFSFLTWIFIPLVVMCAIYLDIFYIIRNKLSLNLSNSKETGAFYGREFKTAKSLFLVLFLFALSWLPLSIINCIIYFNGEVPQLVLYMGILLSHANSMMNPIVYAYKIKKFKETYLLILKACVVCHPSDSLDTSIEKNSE

[3] = molecular target: Beta-2 adrenergic receptor (Homo sapiens, UniProt P07550); assay type: functional, cell-based
Beta-2 adrenergic receptor, sequence (P07550 whole entry): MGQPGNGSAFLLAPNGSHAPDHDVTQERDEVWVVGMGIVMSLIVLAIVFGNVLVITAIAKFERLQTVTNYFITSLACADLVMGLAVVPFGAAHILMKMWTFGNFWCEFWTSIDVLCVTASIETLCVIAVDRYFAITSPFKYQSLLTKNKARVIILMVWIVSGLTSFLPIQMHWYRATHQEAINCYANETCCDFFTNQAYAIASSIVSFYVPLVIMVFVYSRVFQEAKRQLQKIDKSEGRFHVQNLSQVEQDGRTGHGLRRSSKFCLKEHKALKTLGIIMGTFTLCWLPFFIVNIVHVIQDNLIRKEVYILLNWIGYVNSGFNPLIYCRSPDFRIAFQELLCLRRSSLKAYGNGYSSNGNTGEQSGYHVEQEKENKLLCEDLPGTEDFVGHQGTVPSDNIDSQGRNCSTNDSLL

[4] = molecular target: T3, 5-hydroxytryptamine receptor 1A (Homo sapiens, UniProt P08908); assay type: functional, cell-based
T3 sequence (P08908 whole entry): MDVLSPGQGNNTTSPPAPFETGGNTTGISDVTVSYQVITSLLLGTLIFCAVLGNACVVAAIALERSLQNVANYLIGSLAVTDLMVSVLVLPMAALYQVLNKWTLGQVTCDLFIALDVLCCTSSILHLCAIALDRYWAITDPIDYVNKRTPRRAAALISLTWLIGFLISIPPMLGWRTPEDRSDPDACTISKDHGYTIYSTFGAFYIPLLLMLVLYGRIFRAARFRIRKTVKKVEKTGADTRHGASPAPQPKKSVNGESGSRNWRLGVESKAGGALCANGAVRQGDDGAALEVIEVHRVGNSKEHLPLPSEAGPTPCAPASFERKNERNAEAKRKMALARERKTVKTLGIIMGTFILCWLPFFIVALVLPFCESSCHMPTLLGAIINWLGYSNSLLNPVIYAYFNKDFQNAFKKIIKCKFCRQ

[5] = molecular target: 5-hydroxytryptamine receptor 2B (Homo sapiens, UniProt P41595); assay type: functional, cell-based
5-hydroxytryptamine receptor 2B, sequence (P41595 whole entry): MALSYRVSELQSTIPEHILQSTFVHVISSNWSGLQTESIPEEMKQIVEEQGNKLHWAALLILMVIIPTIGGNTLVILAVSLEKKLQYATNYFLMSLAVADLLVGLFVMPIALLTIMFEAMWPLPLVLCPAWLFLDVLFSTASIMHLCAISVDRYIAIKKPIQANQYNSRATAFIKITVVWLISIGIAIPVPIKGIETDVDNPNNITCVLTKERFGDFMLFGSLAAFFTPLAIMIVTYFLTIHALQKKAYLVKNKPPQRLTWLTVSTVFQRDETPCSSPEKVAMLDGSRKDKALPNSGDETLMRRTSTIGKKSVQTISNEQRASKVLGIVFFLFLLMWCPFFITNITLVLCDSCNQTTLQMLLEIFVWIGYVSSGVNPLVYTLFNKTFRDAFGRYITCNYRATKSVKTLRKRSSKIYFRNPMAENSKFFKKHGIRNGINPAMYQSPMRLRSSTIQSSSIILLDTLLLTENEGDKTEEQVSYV

[6] = molecular target: 3',5'-cyclic-AMP phosphodiesterase 4D (Homo sapiens, UniProt Q08499); assay type: functional
3',5'-cyclic-AMP phosphodiesterase 4D, sequence (Q08499 whole entry): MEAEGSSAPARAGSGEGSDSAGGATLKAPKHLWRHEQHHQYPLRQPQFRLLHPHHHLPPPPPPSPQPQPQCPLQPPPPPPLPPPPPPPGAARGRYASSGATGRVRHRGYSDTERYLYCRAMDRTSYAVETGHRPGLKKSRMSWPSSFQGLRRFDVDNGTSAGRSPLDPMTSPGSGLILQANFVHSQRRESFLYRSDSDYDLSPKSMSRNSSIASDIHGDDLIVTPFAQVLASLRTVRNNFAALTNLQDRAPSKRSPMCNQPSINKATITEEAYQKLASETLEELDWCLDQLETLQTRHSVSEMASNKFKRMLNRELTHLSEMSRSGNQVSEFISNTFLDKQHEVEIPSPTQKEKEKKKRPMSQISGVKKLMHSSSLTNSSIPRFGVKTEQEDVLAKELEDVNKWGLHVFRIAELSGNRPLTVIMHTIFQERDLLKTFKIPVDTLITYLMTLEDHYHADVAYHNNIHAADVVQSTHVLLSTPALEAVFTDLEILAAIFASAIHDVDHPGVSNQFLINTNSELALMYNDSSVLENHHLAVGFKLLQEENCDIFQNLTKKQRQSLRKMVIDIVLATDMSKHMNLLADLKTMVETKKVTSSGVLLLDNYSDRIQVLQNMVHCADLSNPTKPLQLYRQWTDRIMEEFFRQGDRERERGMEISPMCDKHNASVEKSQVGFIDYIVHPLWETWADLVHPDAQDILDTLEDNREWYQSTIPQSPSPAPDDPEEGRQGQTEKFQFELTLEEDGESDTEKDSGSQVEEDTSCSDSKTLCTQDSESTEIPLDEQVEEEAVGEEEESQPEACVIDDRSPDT

[7] = molecular target: T4, Alpha-1A adrenergic receptor (Homo sapiens, UniProt P35348); assay type: functional, cell-based
T4 sequence (P35348 whole entry): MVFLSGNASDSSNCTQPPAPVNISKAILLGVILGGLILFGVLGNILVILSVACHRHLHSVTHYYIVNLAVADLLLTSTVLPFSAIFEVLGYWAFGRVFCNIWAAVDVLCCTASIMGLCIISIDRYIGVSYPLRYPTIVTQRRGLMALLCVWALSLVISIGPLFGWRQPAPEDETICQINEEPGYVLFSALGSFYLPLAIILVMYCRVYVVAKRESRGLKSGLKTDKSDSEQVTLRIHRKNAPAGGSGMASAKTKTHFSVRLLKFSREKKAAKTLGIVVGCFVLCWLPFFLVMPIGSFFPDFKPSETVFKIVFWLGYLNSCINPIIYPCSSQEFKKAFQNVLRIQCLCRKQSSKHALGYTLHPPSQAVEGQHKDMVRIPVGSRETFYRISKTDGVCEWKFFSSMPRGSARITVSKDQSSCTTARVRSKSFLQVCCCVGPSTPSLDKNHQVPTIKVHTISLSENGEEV

Histamine H2 receptor = Histamine H2 receptor (Homo sapiens, UniProt P25021); assay type: functional, cell-based
Histamine H2 receptor, sequence (P25021 whole entry): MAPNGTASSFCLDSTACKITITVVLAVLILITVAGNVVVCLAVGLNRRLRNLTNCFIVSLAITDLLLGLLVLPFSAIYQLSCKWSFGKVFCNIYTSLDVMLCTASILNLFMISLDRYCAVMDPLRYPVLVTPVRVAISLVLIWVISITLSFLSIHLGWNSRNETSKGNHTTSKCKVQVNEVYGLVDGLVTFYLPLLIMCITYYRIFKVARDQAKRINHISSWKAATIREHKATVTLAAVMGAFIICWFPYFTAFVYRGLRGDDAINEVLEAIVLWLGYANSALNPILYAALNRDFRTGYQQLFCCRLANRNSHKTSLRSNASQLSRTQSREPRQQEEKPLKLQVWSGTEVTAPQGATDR

Thromboxane A2 receptor = molecular target: T5, Thromboxane A2 receptor (Homo sapiens, UniProt P21731)
T5 sequence (P21731 whole entry): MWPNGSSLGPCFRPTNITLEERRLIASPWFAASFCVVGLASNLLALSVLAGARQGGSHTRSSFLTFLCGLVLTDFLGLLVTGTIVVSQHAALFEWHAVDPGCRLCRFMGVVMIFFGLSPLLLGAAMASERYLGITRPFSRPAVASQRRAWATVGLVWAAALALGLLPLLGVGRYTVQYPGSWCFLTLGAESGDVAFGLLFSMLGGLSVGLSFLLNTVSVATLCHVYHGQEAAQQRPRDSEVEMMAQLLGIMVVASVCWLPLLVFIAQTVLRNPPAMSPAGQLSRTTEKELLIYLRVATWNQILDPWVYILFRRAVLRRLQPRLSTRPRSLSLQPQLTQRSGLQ
Further: assay procedure not described here.

Compound: COc1nccnc1NS(=O)(=O)c1ccc(N)cc1
- AC50 [1]: > 30 µM
- AC50 [2]: > 30 µM

Compound: CN(C)CCCN1C(=O)c2cc([N+](=O)[O-])ccc2Oc2ccccc21
- AC50 [1]: > 30 µM
- AC50 [2]: > 30 µM

Compound: O=S(=O)(O)CCS [2-MERCAPTOETHANESULFONIC ACID]
- AC50 [2]: > 30 µM

Compound: O=C(O)COc1nn(Cc2ccccc2)c2ccccc12 [BENDAZAC]
- AC50 [1]: > 30 µM
- AC50 [2]: > 30 µM

Compound: O=C(O)CCCc1ccc(N(CCCl)CCCl)cc1 [CHLORAMBUCIL]
- AC50 [2]: 22.1 µM

Compound: CN(CC(=O)O)C(=N)N [CREATINE]
- AC50 [1]: > 30 µM
- AC50 [2]: > 30 µM

Compound: Cn1c(=O)c2c(ncn2CC(O)CO)n(C)c1=O (stereo not drawn) [DYPHYLLINE]
- AC50 (Adenosine receptor A3): > 30 µM
- AC50 [2]: > 30 µM

Compound: C#Cc1cccc(Nc2ncnc3cc(OCCOC)c(OCCOC)cc23)c1 [ERLOTINIB]
- AC50 (Adenosine receptor A3): 25 µM
- AC50 [3]: > 30 µM
- AC50 [2]: > 30 µM
- AC50 [4]: > 30 µM
- AC50 [5]: > 30 µM
- AC50 [6]: > 30 µM
- AC50 [7]: > 30 µM

Compound: Cc1cc2c(OCC(O)CNC(C)C)cccc2[nH]1 (stereo not drawn) [MEPINDOLOL]
- AC50 [1]: > 30 µM
- AC50 [2]: > 30 µM

Compound: CC(=O)/N=c1/sc(S(N)(=O)=O)nn1C [METHAZOLAMIDE]
- AC50 (Adenosine receptor A3): > 10 µM
- AC50 [1]: > 30 µM
- AC50 [2]: > 30 µM
- AC50 (Histamine H2 receptor): > 10 µM
- AC50 [4]: > 10 µM
- AC50 [5]: > 10 µM
- AC50 [6]: > 30 µM
- AC50 (Thromboxane A2 receptor): > 10 µM

Compound: CCOc1cc(N)c(Cl)cc1C(=O)NCC1CN(Cc2ccc(F)cc2)CCO1 (stereo not drawn) [MOSAPRIDE]
- AC50 [2]: > 30 µM

Compound: CCOc1ccc2ccccc2c1C(=O)N[C@@H]1C(=O)N2[C@@H]1SC(C)(C)[C@@H]2C(=O)O [NAFCILLIN]
- AC50 [1]: > 30 µM
- AC50 [2]: > 30 µM

Compound: CN1CCC[C@H]1c1cccnc1 [NICOTINE]
- AC50 [2]: > 30 µM
